This passage reports Kd results from article PMC6477744, “Mebendazole-induced M1 polarisation of THP-1 macrophages may involve DYRK1B inhibition” (BMC Research Notes, 2019).

Structures are written as SMILES.

In the assay the target is Dual specificity tyrosine-phosphorylation-regulated kinase 1B (DYRK1B) (Homo sapiens, UniProt Q9Y463). The assay can be described thus: DiscoverX competition binding assay (DNA-tagged kinase, 11-point Kd); also enzyme inhibition IC50 […] at […] ATP.
Dual specificity tyrosine-phosphorylation-regulated kinase 1B (DYRK1B), sequence (Q9Y463 whole entry): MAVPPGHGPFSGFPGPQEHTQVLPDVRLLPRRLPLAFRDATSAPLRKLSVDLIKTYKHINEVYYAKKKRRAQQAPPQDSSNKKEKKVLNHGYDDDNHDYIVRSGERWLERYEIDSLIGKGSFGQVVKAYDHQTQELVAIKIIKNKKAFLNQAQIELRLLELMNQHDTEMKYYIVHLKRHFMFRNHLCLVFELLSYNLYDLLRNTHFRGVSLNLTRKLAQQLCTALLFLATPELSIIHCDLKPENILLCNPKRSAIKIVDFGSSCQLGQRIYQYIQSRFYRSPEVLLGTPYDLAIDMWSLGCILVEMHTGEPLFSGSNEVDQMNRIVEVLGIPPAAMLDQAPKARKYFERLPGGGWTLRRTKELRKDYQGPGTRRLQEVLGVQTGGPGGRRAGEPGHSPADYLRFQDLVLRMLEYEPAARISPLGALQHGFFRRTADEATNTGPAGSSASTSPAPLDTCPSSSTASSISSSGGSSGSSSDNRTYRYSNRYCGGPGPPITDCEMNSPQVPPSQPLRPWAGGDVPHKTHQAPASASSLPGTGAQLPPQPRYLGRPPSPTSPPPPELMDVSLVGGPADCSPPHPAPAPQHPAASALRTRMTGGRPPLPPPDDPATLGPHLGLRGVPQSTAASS

With `COC(=O)Nc1nc2ccc(C(=O)c3ccccc3)cc2[nH]1` [MBZ, mebendazole], the Kd is 7 nM.

By Kd is commonly meant a measure of binding affinity in units of concentration. A low value points to higher affinity.
